One compound from ChEMBL document CHEMBL1149001, “Phebalosin from the bark of Micromelum minutum” (J Nat Prod, 1986) can be followed below.

One data set has as its system Artemia. In words: Toxicity in brine shrimp. It counts as organism-based. The following applies: in vivo.
Data set [1] concerns Agrobacterium tumefaciens. Put plainly: Antitumor activity against Agrobacterium tumefaciens-induced crown gall tumors assessed as inhibition of tumor development in potato by crown gall tumor potato disk test. It counts as functional. Also noted: scale not given: the % may be the effect or the level left.
Data set [2] in a line: Cytotoxicity against human 9KB cells. It is filed as functional. The following applies: read-out: ED50 (the source's name).
The nature of data set [3]: Cytotoxicity against mouse 9PS cells. The following applies: read-out: ED50 (the source's name). It counts as functional.

In brackets after ≈: the same amount, converted by molar mass. A value given as a limit tells only on which side of the number the result lay.

Regarding `C=C(C)[C@H]1O[C@@H]1c1c(OC)ccc2ccc(=O)oc12` [PHEBALOSIN], in the data set with Artemia, the 50% lethal concentration (LC50) (commonly the concentration lethal to half of the exposed cells or organisms) is given as 47 ppm. Further, in data set [1], the Activity was -70%. Further, the EC50 is more than 20 µg/mL in data set [2] and 27 µg/mL (≈ 105 µM) in data set [3].
